{
  "source": "paper PMC8949366",
  "about": "“Synthesis of Marine Cyclopeptide Galaxamide Analogues as Potential Anticancer Agents” (Marine Drugs, 2022)",
  "key": {"[1]": {"test_system": "GRC-1", "set-up": "method as in PMID 18816120", "conditions": "cited from earlier work"}, "[2]": {"test_system": "MCF-7 cells", "experiment": "Cell cycle distribution by propidium iodide staining / flow cytometry", "format": "cell-based, human", "conditions": "0, 2.5, 5, 10 µg/mL, 72 h", "procedure": "Therefore, propidium iodide (PI) staining method was used to further investigate the changes in the cell cycle distribution of MCF-7. In particular, MCF-7 cells were exposed to galaxamide, Z-3, and Z-6 with concentrations of 0, 2.5, 5, and 10 µg/mL for 72 h. Generally, the main effects of galaxamide, Z-3, and Z-6 on MCF-7 cells were in the G0/G1 phase. There was no obvious sub diploid peak in flow cytometry.\n(§1) The concentration of 1 × 10^4 cells per well of MCF-7 cells were seeded in 96-well plates. The cell cultures were added to the compounds with a concentration of 0, 2.5, 5, and 10 µg/mL, and incubated for 72 h. After that, 5 µL of Annexin V-fluorescein isothiocyanate (FITC) and 5 µL of PI were added for dual staining of the cells for analysis by FACS flow cytometry. Cell cycles and apoptotic cells were determined by counting the FITC-positive and PI-negative fractions."}, "[3]": {"test_system": "HepG2", "set-up": "method as in PMID 18816120", "conditions": "cited from earlier work"}, "[4]": {"test_system": "MCF-7 cells", "experiment": "Annexin V-FITC/PI double staining apoptosis, flow cytometry", "format": "cell-based, human", "conditions": "0, 2.5, 5, 10 µg/mL, 72 h", "procedure": "The Annexin V-FITC/PI double staining method was used to analyze the changes in the apoptosis of MCF-7 cells after 72 h of galaxamide, Z-3, and Z-6 exposure. […] At low concentrations, the effects of all the tested compounds were not obvious. When the concentration reached 10 μg/mL, the apoptotic effects of galaxamide, Z-3, and Z-6 on MCF-7 cells were more obvious in the late apoptotic state.\nas §1\nThe apoptotic cells were quantified according to the instructions provided in an Annexin V-FITC (Sigma-Aldrich, St. Louis, MO, USA) cell apoptosis assay kit. Briefly, about 1.5 × 10^5 cells were plated in 96-well plates and treated with galaxamide and its representative analogues (0, 2.5, 5, and 10 µg/mL) for 48 h. The cells were then resuspended in a […] binding buffer. Afterward, […] of annexin V-fluorescein isothiocyanate (FITC) was added, followed by incubation in darkness at room temperature for 10 min. The cells were again resuspended in […] binding buffer and stained with […] PI. The prepared cells were then analyzed using a flow cytometry (Coulter Epics Elite, Miami, FL, USA). The cells in the FITC-positive and PI-negative fractions were regarded as apoptotic cells."}, "[5]": {"test_system": "MCF-7 cells", "experiment": "Hoechst 33,342 staining of nuclear morphology", "format": "cell-based, human", "conditions": "72 h", "procedure": "The morphological alteration of MCF-7 cells was analyzed by the method of Hoechst 33,342 staining (Figure 5). […] The pyknotic nuclei increased with the increasing concentration of these compounds.\n[…] After that, the cell culture was washed with 1 mL of PBS and then added with 3 mL of 4% paraformaldehyde solution for 15 min. Then, 1 mL of the prepared Hoechst 33,342 staining solution was added. The resulting mixture was incubated at room temperature for 15 min in the dark."}, "[6]": {"test_system": "A549", "format": "cell-based, human", "conditions": "72 h", "procedure": "(§2) Cell culture: MCF-7/MD-MAB-231 (human breast cancer cell line ATCC HTB-22/HTB-26), Hep G2 (human liver cancer cell line ATCC HB-8065), Hela (human cervical carcinoma cell line ATCC CCL-2), A459 (human lung cancer cell line ATCC CCL-185), and HUVEC (primary umbilical vein endothelial cell line ATCC PCS-100-010) were obtained from the Jinan Department of Pathology, University School of Medicine (Jinan University, Guangzhou, China). The cells were cultured in a Modified Eagle’s Medium (DMEM) including 10% fetal bovine serum, 1% penicillin-streptomycin, and antifungal agent, and cultured under standard conditions (5% CO2 atmosphere and temperature at 37 °C). The MTT method was used to evaluate the cytotoxicities of galaxamide and its analogues on the five cancerous cells. In this experiment, the number of regulated cells was 2 × 10^3 cells/well. Then, the cells, as well as galaxamide and its analogues of different concentrations (0, 2.5, 5, and 10 μg/mL), were seeded on a 96-well cell culture plate and cultured in a 37 °C, 5% CO2 incubator for 72 h. After that, 20 µL/well of MTT solution (5 mg/mL phosphate-buffered saline) was added and incubated for 5 h. The medium was discarded and replaced with 100 µL/well of DMSO to dissolve the formazan salt. The color intensity of the cell culture at 570 nm was measured using a microplate spectrophotometer (SpectroAma™ 250, Winooski, VT, USA)."}, "[7]": {"test_system": "MD-MBA-231", "format": "cell-based, human", "conditions": "72 h", "procedure": "as §2"}, "[8]": {"test_system": "HepG2", "format": "cell-based, human", "conditions": "72 h", "procedure": "as §2"}, "[9]": {"test_system": "HUVEC", "format": "cell-based, human", "conditions": "72 h", "procedure": "as §2"}, "[10]": {"test_system": "Hela", "format": "cell-based, human", "conditions": "72 h", "procedure": "as §2"}, "[11]": {"test_system": "MCF-7", "format": "cell-based, human", "conditions": "72 h", "procedure": "as §2"}},
  "note": "Square brackets hold non-standard residues; d marks the D form. Peptide text beside a SMILES is read from it. NMeL = CN[C@@H](CC(C)C)C(=O)O",
  "data": [
    {"smiles": "CC(C)C[C@@H]1NC(=O)[C@H](CC(C)C)N(C)C(=O)[C@H](CC(C)C)NC(=O)[C@H](CC(C)C)N(C)C(=O)[C@H](CC(C)C)NC1=O", "note": "[galaxamide] (cyclo(LL[NMeL]L[NMeL]))", "values": [
      {"measurement": "Antitumor activity against GRC-1 (in words)", "setting": "[1]", "result": "significant antitumor activities"},
      {"measurement": "Effect on cell cycle of MCF-7 (in words)", "setting": "[2]", "result": "mainly blocked the growth of cells in the G0/G1 phase"},
      {"measurement": "Antitumor activity against HepG2 (in words)", "setting": "[3]", "result": "significant antitumor activities"},
      {"measurement": "Apoptosis of MCF-7 cells (in words)", "setting": "[4]", "result": "apoptosis rate of MCF-7 increased with the increasing of the concentration"},
      {"measurement": "Nuclear morphology of MCF-7 cells (in words)", "setting": "[5]", "result": "the morphology of the nuclei was significantly changed"},
      {"measurement": "IC50 A549", "setting": "[6]", "result": "6.99 ± 0.63", "unit": "µg/mL"},
      {"measurement": "IC50 MD-MBA-231", "setting": "[7]", "result": "8.73 ± 0.29", "unit": "µg/mL"},
      {"measurement": "IC50 HepG2", "setting": "[8]", "result": "5.20 ± 0.52", "unit": "µg/mL"},
      {"measurement": "IC50 HUVEC", "setting": "[9]", "result": ">40", "unit": "µg/mL"},
      {"measurement": "IC50 Hela", "setting": "[10]", "result": "8.53 ± 0.73", "unit": "µg/mL"},
      {"measurement": "IC50 MCF-7", "setting": "[11]", "result": "11.33 ± 2.95", "unit": "µg/mL"}
    ]}
  ]
}
